Results from paper PMC10033663, “Acute pharmacological profile of 2C-B-Fly-NBOMe in male Wistar rats—pharmacokinetics, effects on behaviour and thermoregulation” (Frontiers in Pharmacology, 2023).
Where two headings read alike, the source gives them in different places.

Tests used:
5-HT2A receptor [1] = system: 5-HT2A receptor; set-up: method as in Ettrup et al., 2011; conditions: GF-62 cells; among the examined NBOMes; ref Ettrup et al., 2011; cited from earlier work
[2] = three different systems; ref Nykodemová et al., 2021; cited from earlier work
5-HT2A receptor [3] = system: 5-HT2A receptor; set-up: method as in Ettrup et al., 2011; conditions: among the examined NBOMes; ref Ettrup et al., 2011; cited from earlier work
[4] = PET; ref Ettrup et al., 2011; cited from earlier work
[5] = Pharmacokinetics of 2C-B-Fly-NBOMe in blood serum and brain tissue (LC/MS); assay type: in vivo, male Wistar rats; conditions: for k el: read-out: ke (h^-1) elimination rate constant (converted)
Procedure: For the pharmacokinetic study, rats were treated with 1 mg/kg s. c. of 2C-B-Fly-NBOMe and then sacrificed by decapitation after 0.5, 1, 2, 4, 8 and 24 h (n = 8 per time point). Collected blood was left to clot in a refrigerator for 1 h, then centrifuged for 10 min at 1500 g, 10°C, and the separated serum was collected. Whole brains were excised manually using surgical instruments. All serum and brain samples were stored at −20°C until the analysis.
200 μl of blood serum was diluted in a microtube with 200 μl of 1% ammonia solution and homogenized in a Bullet Blender tissue homogenizer (speed 2, time 5 min). Next, 400 μl of ethyl acetate was added by the automatic dispenser and the whole content was homogenized again (speed 3, time 5 min), additional 400 μl of ethyl acetate was added and the sample was homogenized for the last time. The homogenate was centrifuged (10 min, 25°C, 12,000 RPM), 600 μl of the top layer was transferred into a new microtube and 50 μl of 10% formic acid solution was added. After proper shaking, the solution was evaporated in the CentriVap concentrator. The residue was then dissolved in 100 μl of methanol and shaken for 10 min. Prior to the analysis, the solution was diluted 1:1 in deionized water, mixed and centrifuged.
100 µL of 1% ammonium hydroxide solution was added to 200 mg of brain tissue. A mixture was homogenized with 200 mg of zirconium oxide beads in a BulletBlender for 10 min (speed 5). 400 μL of ethyl acetate was added to the mixture and homogenized (BulletBlender, speed 3, time 5 min). Additional 400 µL of ethyl acetate was added to the mixture and homogenized (BulletBlender, speed 3, time 5 min). Samples were centrifuged (10 min, 25°C, 12,000 RPM), 400 µL of supernatant was acidified and completely evaporated (Centrivap Concentrator). The dry residue was reconstituted with 400 µL of methanol. Prior to the analysis, 250 µL of the solution was diluted with 750 µL of water, mixed, and centrifuged (0.2 µm PVDF filter).
The samples were analysed using ultra-high performance liquid chromatography-tandem mass spectrometry instrumentation (1,290 Infinity—6,460 Triple Quadrupole LC/MS Agilent Technologies with AJS electrospray ionization source). A column Kinetex Biphenyl (100 × 2.1 mm, 2.6 µm) with a pre-column was used for a chromatographic separation at 35°C with gradient elution in a system of 5 mM ammonium formate with 0.01% (v/v) formic acid (mobile phase A) and methanol with 0.01% (v/v) formic acid (mobile phase B). The gradient started at 10% B, increased from 10% to 50% B in 0.5 min and from 50% to 100% B in 1.5 min, held for 2 min at 100% B, decreased to 10% B in 0.5 min and held for 2 min at 10% B. Data were acquired in positive electrospray ionization (ESI) mode using a multiple reaction monitoring method, one quantification ion and three confirmation ions were used. 2C-B-Fly-NBOMe was quantified using an external matrix-matched calibration. The limit of quantification was 1 ng/ml (1 ng/g for brain tissue). The matrix-matched calibration was performed in duplicates; real samples were also processed in duplicates.
For the pharmacokinetic data, a one-compartment model with a first-order absorption equation ([Wijnand, 1988]) was fitted using a cubic spline interpolation: Ct=D·ka·F/V/ka−ke×expke·t−exp(−ka·t Where C = 2C-B-Fly-NBOMe concentration, t = time, D = dose, ka = absorption rate constant, F = bioavailability, V = volume of distribution, ke = elimination rate constant.
The half-life of the drug elimination was calculated using Package PKNCA version 0.9.4 implemented in R software ([Buckeridge et al., 2015]).

male Wistar rats = test: Thermoregulation (rectal temperature); assay type: in vivo; conditions: 5 mg/kg s. c.
Procedure: For the assessment of rectal temperature changes, rats were housed individually or in groups of five per cage. They were treated with 2C-B-Fly-NBOMe (5 mg/kg) or ctrl solution s. c. at 9:00 h. During the measurements, each rat was briefly immobilized in a plexiglass tube and then returned to its home cage. In total, 14 measurements were performed: […] for setting the baseline temperature, and then 4 subsequent 30 min measurements (09:30–11:00 h) and 6 hourly measurements (12:00–17:00 h).
Data from thermoregulatory experiments were analysed using 2 × 2 × 14 mixed factorial design with drug treatment (2C-B-Fly-NBOMe at 5 mg/kg or ctrl) and home cage conditions (individually and group-housed animals) as between-subjects factors and time (14 measurements) as a within-subjects factor. The baseline temperatures of animals were compared in the same manner.

[6] = brain, 1 mg/kg s. c., mean ± SEM
[7] = male, Wistar, rat, sc, brain, 1 mg/kg s. c., mean ± SEM
[8] = male, Wistar, rat, sc, serum, 1 mg/kg s. c., mean ± SEM
[9] = serum, 1 mg/kg s. c., mean ± SEM

In the case of COc1ccccc1CNCCc1c2c(c(Br)c3c1OCC3)OCC2 [2C-B-Fly-NBOMe], the “binding affinity to 5-HT2A receptor” value (5-HT2A receptor [1]) is listed as “highest binding affinity”, the “number of phase I metabolites” value [2] is listed as “thirty-five” and the “number of phase II metabolites” value [2] is listed as “nine”. For the same compound, the intrinsic activity (5-HT2A receptor [3]) was “the lowest”, the cortical uptake [4] was “highest cortical uptake among the examined NBOMes” and the “penetration of brain tissue” value [4] was “readily penetrated the brain tissue”. The Maximum mean concentration ([5]; blood serum, 1 mg/kg s. c.) was 28 ng/mL, the “Time of maximum mean concentration” value ([5]; blood serum, 1 mg/kg s. c.) was ≤ 0.5 h and the “Time of peak drug concentration” value ([5]; brain tissue, 1 mg/kg s. c.) was 60 min. For the same compound, the “passage through the blood-brain barrier” value ([5]; brain versus serum concentration, 1 mg/kg s. c.) was “readily passes through the blood-brain barrier”, the AUC0-24 h [5, 6] was 826.3 ± 112.6 ng·h/g and the “ka (h^-1) absorption rate constant” value [5, 6] was 0.685 ± 0.034 h⁻¹. The Tmax ([5]; male, Wistar, rat, sc, brain, 1 mg/kg s. c.) was 1.1 h, the half-life ([5]; male, Wistar, rat, sc, brain, 1 mg/kg s. c., Table 1, read-out: t1/2 (converted)) was 3.2 h and the Cmax [5, 7] was 159 ± 15.3 ng/g. It also gave a k el [5, 7] of 0.655 h⁻¹, a Tmax ([5]; male, Wistar, rat, sc, serum, 1 mg/kg s. c.) of 0.8 h and a half-life ([5]; male, Wistar, rat, sc, serum, 1 mg/kg s. c., Table 1, read-out: t1/2 (converted)) of 2.55 h. It also gave a Cmax [5, 8] of 28.4 ± 6.33 ng/mL, a bioavailability ([5]; male, Wistar, rat, sc, serum, 1 mg/kg s. c., mean ± SEM, one-compartment model, read-out: F (%) bioavailability) of 96.1 ± 4.8% and an AUC(0-t) ([5]; male, Wistar, rat, sc, serum, 1 mg/kg s. c., mean ± SEM, read-out: AUC0-24 h) of 115 ± 25.6 ng·h/mL. It also gave a k el [5, 8] of 0.733 h⁻¹, a half-life ([5]; male, Wistar, rat, subcutaneous, blood serum, 1 mg/kg s. c., read-out: half-life of elimination (converted)) of 1.56 h and a half-life ([5]; male, Wistar, rat, subcutaneous, brain, 1 mg/kg s. c., read-out: half-life of elimination (converted)) of 2.4 h. The concentration at 8 h ([5]; male, Wistar, rat, subcutaneous, brain, 8 h after 1 mg/kg s. c.) was 21 ng/g, the “Time of peak drug concentration” value ([5]; serum, 1 mg/kg s. c.) was 30 min and the “V d (mL) volume of distribution” value [5, 9] was 7.231 ± 0.362 mL. For the same compound, the “ka (h^-1) absorption rate constant” value [5, 9] was 0.731 ± 0.036 h⁻¹, the “presence in serum after 8 h” value ([5]; serum, 8 h after 1 mg/kg s. c.) was “almost undetectable” and the “trend of hypothermic reaction in group-housed animals” value (male Wistar rats; animals housed in groups) was “not in animals housed in groups”. The “hypothermic trend in individually housed animals” value (male Wistar rats; individually housed, first 90 min after application) was “the statistical difference was not significant” and the “effect of the treatment on body temperature (ANOVA)” value (male Wistar rats; p < 0.05) was “significant effect of the treatment”.
